In US20070066595A1, “Selective estrogen receptor modulators” (priority 2004, published 2007):
Like-named read-outs stand apart in the source and are kept apart here.

How the values were obtained:
[1] = test system: Ishikawa human endometrial tumor cells; experiment: Ishikawa Cell Proliferation Assay (alkaline phosphatase readout; agonist and antagonist modes); assay type: cell-based
Procedure: Ishikawa Cell Proliferation Assay: This assay measures cell proliferation (using an alkaline phosphatase readout) in both an agonist mode in the presence of a compound of the present invention alone, and in an antagonist mode in which the ability of a compound of the present invention to block estradiol stimulation of growth is measured.
Ishikawa human endometrial tumor cells are maintained in MEM (minimum essential medium, with Earle's salts and L-Glutamine, Gibco BRL, Gaithersburg, Md.), supplemented with 10% fetal bovine serum (FBS) (V/V), (Gibco BRL). One day prior to assay, growth media is changed to assay medium, DMEM/F-12 (3:1) (Dulbecco's Modified Eagle Medium: Nutrient Mixture F-12, 3:1 Mixture, phenol red-free, Gibco BRL) supplemented with 5% dextran coated charcoal stripped fetal bovine serum (DCC-FBS) (Hyclone, Logen, Utah), L-Glutamine (2 mM), MEM sodium pyruvate (1 mM), HEPES (N-[2-hydroxyethyl]piperazine-N′-[2-ethanesulfonic acid]2 mM) all from Gibco BRL). After an overnight incubation, Ishikawa cells are rinsed with Dulbecco's Phosphate Buffered Saline (1×) (D-PBS) without Ca^+2 and Mg^+2 (Gibco BRL), and trypsinized by a 3 minute incubation with 0.25% Trypsin/EDTA, phenol red-free (Gibco BRL). Cells are resuspended in assay medium and adjusted to 250,000 cells/mL. Approximately 25,000 cells in a 100 ul media are added to flat-bottom 96 wells microculture plates (Costar 3596) and incubated at 37° C. in a 5% CO2 humidified incubator for 24 hours. […]
For the antagonist mode, plates receive 25 μl/well of 6 nM E2 (β-Estradiol, Sigma, St. Louis, Mo.) followed by 25 μl/well of a diluted compound of the present invention (at 6× the final concentrations). […] After a 20-minute incubation, plates are read on a spectophotometer at 405 nm.
The data is fitted to a linear interpolation to derive EC50 (for agonist mode) or IC50 (for antagonist mode) values. For the antagonist mode, a % efficacy for each compound is calculated versus E2 (1 nM) alone. For the agonist mode, a % efficacy for each compound is calculated versus the response to tamoxifen.

[2] = test system: immature (3 week old) female rats, estrogen-induced uterine weight; experiment: 3-Day Rat Uterus Antagonist Assay; assay type: in vivo; conditions: 3 days, with E2 0.1 mg/kg; for inhibition of the estrogen-induced response: 1.0 mg/kg oral, uterine weight/body weight ratio
Source text: 3-Day Rat Uterus Antagonist Assay: This model for uterine antagonism utilizes immature (3 week old) female rats that are highly sensitive to estrogenic stimulation of the uterus given that their circulating estrogen levels are prepubertal. The uteri from immature rats are fully responsive to exogenous estrogen, yet are quiescent in the absence of exogenous estrogen. Administration of exogenous estrogen to immature rats produces a reliable elevation of uterine weight, which can be used to study uterine antagonist effects. The rats are treated with both estradiol and 4 different concentrations of a compound of the present invention for 3 days and then uterine wet weights are measured.
Nineteen to twenty-one day old (or 45-50 g) female rats are orally treated with E2 (0.1 mg/kg, a maximal stimulatory estrogenic stimulus for reliably increasing uterine weight) and 10, 1.0, 0.1 and 0.01 mg/kg test compound for 3 days, 6 rats per group. Test compounds are dissolved in 20% β-hydroxycyclodextrin and administered by oral gavage in a volume of 0.2 mL daily (15 min. prior to the ethynyl estradiol gavage). A vehicle control, E2 alone and E2+raloxifene are also done as controls. The animals are fasted overnight following the final dose. On the following morning, the animals are weighed, then euthanized (by carbon dioxide asphyxiation) and the uteri rapidly collected (via a mid-line ventral incision) and weighed.
Uterine weight/body weight ratios (UWR) are calculated for each animal. The percent inhibition of the estrogen-induced response is then calculated by the following formula: percent inhibition=100×(UWRestrogen−UWRtest compound/UWRestrogen−UWRcontrol). ED50 values are derived from a semi-log regression analysis of the linear aspect of the dose response curve. Both the UWR data and the percent inhibition data are statistically analyzed by one way analysis of variance (ANOVA) with post-hoc testing by Fisher's PLSD when indicated by a p<0.05. Statistical analyses are performed using the Statview® 4.0 software package.

[3] = test system: mature F344 female rats, serum LH and estradiol; experiment: 10-Day Rat Hormone (Ovarian Stimulation) Screen; assay type: in vivo; conditions: oral gavage 10 days; serum about 2 hours after 10th dose; RIA
Procedure: 10-Day Rat Hormone (Ovarian Stimulation) Screen: An initial, first screen for ovarian toxicity is conducted using a 10-day rat hormone study to measure estradiol and luteinizing hormone levels after compound administration. This screen is conducted by administering compound by oral gavage for 10 days to mature (9-10 week old) F344 female rats. Trunk blood is collected by rapid decapitation for evaluation of LH and estradiol levels approximately 2 hours after the 10th dose. Serum, obtained by centrifugation, is removed and stored frozen below −60° C. until assayed. Serum levels of LH and estradiol are measured using radioimmunoassay (RIA) methods.
Rat LH primary antibody and reference preparations (rat LH:RP-3) are obtained from Dr. A. F. Parlow, Director, Pituitary Hormones and Antisera Center, Harbor-UCLA Medical Center, Torrance, Calif. The LH assay upper limits of detection are 30 ng/mL and the lower limits of detection are 0.1 ng/mL for the 100 μl samples.
E2 Clinical Assays. DiaSorin s.r.l., Saluggia (Vercelli), Italy. The upper limit of detection is 1000 pg/mL and the lower limit of detection is 5 pg/mL.

Compound: Cl.O=S1(=O)CC=C(c2ccc3cc(O)ccc3c2Oc2ccc(OCCN3CCCCC3)cc2)CC1 [Example 9, 6-(1,1-Dioxo-1,2,3,6-tetrahydro-1λ^6-thiopyran-4-yl)-5-[4-(2-piperidin-1-yl-ethoxy)-phenoxy]-naphthalen-2-ol Hydrochloride]
- Emax ([1]; agonist mode, versus the response to tamoxifen, read-out: relative % efficacy): 19%
- IC50 ([1]; antagonist mode, block of estradiol stimulation): 7.2 nM
- Emax ([1]; antagonist mode, versus E2 (1 nM) alone, read-out: % efficacy (inhibition of the 1 nM estradiol response)): 97.9%
- inhibition of the estrogen-induced response [2]: inhibit the estrogen-induced response
- % antagonism ([2]; oral): 72.6%
- ED50 ([2]; oral): 0.17 mpk

Compound: Cl.O=S1(=O)CCC(c2ccc3cc(O)ccc3c2Oc2ccc(OCCN3CCCCC3)cc2)CC1 [Example 10, 6-(1,1-Dioxo-hexahydro-1λ^6-thiopyran-4-yl)-5-[4-(2-piperidin-1-yl-ethoxy)-phenoxy]-naphthalen-2-ol Hydrochloride]
- inhibition of the estrogen-induced response [2]: inhibit the estrogen-induced response

Compound: CS(=O)(=O)C1CC=C(c2ccc3cc(O)ccc3c2Oc2ccc(OCCN3CCCCC3)cc2)CC1.Cl (racemic) [Example 2, (+/−)-6-(4-Methanesulfonyl-cyclohex-1-enyl)-5-[4-(2-piperidin-1-yl-ethoxy)-phenoxy]-naphthalen-2-ol Hydrochloride]
- inhibition of the estrogen-induced response [2]: inhibit the estrogen-induced response
- circulating LH levels [3]: did not significantly elevate
- circulating estradiol levels [3]: did not significantly elevate

Compound: CS(=O)(=O)C1CCC(c2ccc3cc(O)ccc3c2Oc2ccc(OCCN3CCCCC3)cc2)CC1.Cl (stereo not drawn) [Example 3, 6-cis-and-trans-(4-Methanesulfonyl-cyclohexyl)-5-[4-(2-piperidin-1-yl-ethoxy)-phenoxy]-naphthalen-2-ol Hydrochloride]
- inhibition of the estrogen-induced response [2]: inhibit the estrogen-induced response
